From patent US11077115B2, “Rorgamma modulators and uses thereof” (Genfit, priority 2017, dated 2021)
Counter-ions that a name gives are not always drawn.

Legend:
[1] = molecular target: T1, RORγt ligand-binding domain (RORγt-LBD) (Homo sapiens, UniProt P51449); assay: Time-resolved FRET (TR-FRET) RORγt coactivator assay (RIP140 peptide displacement); assay type: biochemical; settings: ligand-dependent coactivator-RORγt binding
T1 construct: 20 nM recombinantly expressed RORγ-LBD fused to GST
T1 sequence (P51449 269-508 limits assumed): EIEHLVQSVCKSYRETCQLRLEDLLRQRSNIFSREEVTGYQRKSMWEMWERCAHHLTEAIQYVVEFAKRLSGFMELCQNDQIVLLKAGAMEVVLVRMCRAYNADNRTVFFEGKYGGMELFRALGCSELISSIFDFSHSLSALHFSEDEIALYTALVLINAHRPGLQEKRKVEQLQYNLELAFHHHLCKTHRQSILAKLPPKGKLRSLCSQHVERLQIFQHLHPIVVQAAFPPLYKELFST
Excerpt: Time-resolved FRET (TR-FRET) RORγt coactivator assay was used to identify RORγ modulator compounds with ligand-dependent coactivator displacement. The assay uses a d2-labeled anti-GST antibody, synthetic N-terminally biotinylated peptide which is derived from nuclear receptor coactivator protein RIP140, and a RORγt ligand-binding domain (RORγt-LBD) that is tagged with glutathione-S-transferase (GST). The influence of compounds on the RORγ-peptide interaction relies on the binding dependent energy transfer from a donor to an acceptor fluorophor attached to the binding partner of interest. […] For reduction of background from compound fluorescence, TR-FRET method makes use of generic fluorophore labels and time resolved detection.
The assays were done in a final volume of 20 μl in a 384 well plate in a CHAPS buffer (2 mM CHAPS; 1 mM DTT, 2 mM EDTA; 0.1% BSA), containing 20 nM recombinantly expressed RORγ-LBD fused to GST, 30 nM N-terminally biotinylated peptide, 1 nM streptavidin-terbium conjugate and 20 nM d2 labeled-anti-GST. Test compounds were diluted using 10 mM stock solution. The range of the final compound concentrations used in this test was from 0.3 nM to 30 μM (logarithmic scale). DMSO content of the samples was kept at 1%. The assay was equilibrated for 2 hours in the dark at room temperature in 384 well plates (Falcon). The signal was detected by an Ultra384 reader (TECAN). […] Compounds that promote coactivator displacement induce a concentration-dependent decrease in time-resolved fluorescent signal. Data were collected and analyzed using GraphPad Prism software (GraphPad Software V5.02, San Diego Calif. USA). IC50 in μM and E max in % were reported for each compound.

[2] = molecular target: T2, human RORγt (Homo sapiens, UniProt P51449); assay: RORE Luciferase/RORγt transactivation assay (IL-17 promoter luciferase reporter in COS-7 cells); assay type: cell-based; set-up: V5-His (named only through the vector pcDNA3.1D/V5-His-TOPO); expressed in transfected cells; host or cells: COS-7 (monkey kidney); settings: RORγt activity inhibition, luciferase activity in transfected COS-7 cells, 20 h
T2 sequence (P51449 1-497 isoform P51449-2): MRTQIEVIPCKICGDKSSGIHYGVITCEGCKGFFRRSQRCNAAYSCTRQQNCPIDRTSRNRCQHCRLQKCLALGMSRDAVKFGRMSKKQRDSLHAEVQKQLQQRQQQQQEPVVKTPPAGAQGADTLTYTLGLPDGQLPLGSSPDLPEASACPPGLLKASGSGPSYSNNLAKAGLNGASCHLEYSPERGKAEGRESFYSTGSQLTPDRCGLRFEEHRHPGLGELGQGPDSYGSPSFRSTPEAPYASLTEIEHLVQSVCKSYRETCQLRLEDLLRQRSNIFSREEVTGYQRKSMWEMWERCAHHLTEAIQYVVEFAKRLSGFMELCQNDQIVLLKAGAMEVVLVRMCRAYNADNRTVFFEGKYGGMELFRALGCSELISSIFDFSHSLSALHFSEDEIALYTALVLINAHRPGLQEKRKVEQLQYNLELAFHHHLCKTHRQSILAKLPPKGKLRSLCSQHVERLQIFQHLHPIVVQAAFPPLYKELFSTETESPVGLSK
Experimental: It is well known that RORγ binds to a conserved non-coding sequence (CNS) enhancer element in the IL-17 promoter.
Culture medium was changed every 2 days.
The 4.3 Kb human IL-17 promoter containing the RORγ-specific CNS enhancer element was PCR amplified from human genomic DNA and cloned into a pGL3-TKLuc2Cp reporter plasmid.
The luciferase reporter plasmid and the RORγt overexpression plasmid were transfected into COS-7 cell line using 4 μL JetPEI™/μg of DNA. Briefly, 150 ng of DNA (ration 1/2 between RORE-Tk Luc2Cp and cDNA RORγt or the empty vector for the negative control) was served to transfect adherent COS-7 cells in a […] culture flask, in complete medium (see cos-7 cell line culture).
Cells were then detached (using trypsin) and washed by centrifugation at 300 g for 10 minutes. Cell pellet was resuspended in serum free/phenol red free DMEM and seeded in 384 well plates at a density of 10000 cells/well and then incubated for 4 h at 37° C.
Compounds were dissolved in 100% DMSO to obtain 10 mM stock solutions. For each compound, test concentrations were diluted in serum free/phenol red free DMEM using the Genesis Freedom 200™ (TECAN) and added to the cells to obtain a 0.3% DMSO final concentration (in a final volume of 40 μL per well).
The luciferase activity was then measured with 40 μL/well steady-Glo Luciferase assay system (Promega, Madison, Wis.) and after incubation at room temperature for 30 minutes. The luminescence was estimated using the Ultra384 reader (TECAN). Data were collected and analyzed using GraphPad Prism software (GraphPad Software V5.02, San Diego Calif. USA). IC50 in μM and E max in % were reported for each compound.

SMILES | melting point | IC50 [1] | IC50 [2]
Cc1ccc(C(NC(=O)C2(c3ccc(N4CCS(=O)(=O)CC4)cc3)CC2)c2ccc(Cl)o2)c(C)c1 (stereo not drawn) (as salt: HCl) [Cpd. 66, N-[(5-chlorofuran-2-yl)(2,4-dimethylphenyl)methyl]-1-[4-(1,1-dioxo-1-thiomorpholin-4-yl)phenyl]cyclopropane-1-carboxamide] | 76 °C | – | –
Cc1ccc(C(NC(=O)C2(c3ccc(N4CCS(=O)(=O)CC4)cc3)CC2)c2ccc(Cl)o2)cc1 (stereo not drawn) (as salt: HCl) [Cpd. 67, N-[(5-chlorofuran-2-yl)(4-methylphenyl)methyl]-1-[4-(1,1-dioxo-1-thiomorpholin-4-yl)phenyl]cyclopropane-1-carboxamide] | 157 °C | – | –
Cc1ccc(C(NC(=O)C2(c3cccc(N4CCS(=O)(=O)CC4)c3)CC2)c2ccc(C)o2)c(C)c1 (stereo not drawn) (as salt: HCl) [Cpd. 68, N-[(2,4-dimethylphenyl)(5-methylfuran-2-yl)methyl]-1-[3-(1,1-dioxo-1-thiomorpholin-4-yl)phenyl]cyclopropane-1-carboxamide] | 72 °C | – | –
COc1ccc(C2(C(=O)NC(c3ccc(C)o3)c3ccc(C)cc3C)CC2)cc1N1CCS(=O)(=O)CC1 (stereo not drawn) (as salt: HCl) [Cpd. 69, N-[(2,4-dimethylphenyl)(5-methylfuran-2-yl)methyl]-1-[3-(1,1-dioxo-1-thiomorpholin-4-yl)-4-methoxyphenyl]cyclopropane-1-carboxamide] | 174 °C | – | –
Cc1ccc(C(NC(=O)C2(c3cc(N4CCS(=O)(=O)CC4)ccc3C)CC2)c2ccc(C)o2)c(C)c1 (stereo not drawn) (as salt: HCl) [Cpd. 70, N-[(2,4-dimethylphenyl)(5-methylfuran-2-yl)methyl]-1-[5-(1,1-dioxo-1-thiomorpholin-4-yl)-2-methylphenyl]cyclopropane-1-carboxamide] | 86 °C | – | –
Cc1ccc(C(NC(=O)C2(c3ccc(N4CCS(=O)(=O)CC4)c(C)n3)CC2)c2ccc(C)o2)c(C)c1 (stereo not drawn) (as salt: HCl) [Cpd. 71, N-[(2,4-dimethylphenyl)(5-methylfuran-2-yl)methyl]-1-[5-(1,1-dioxo-1-thiomorpholin-4-yl)-6-methylpyridin-2-yl]cyclopropane-1-carboxamide] | 74 °C | – | –
Cc1ccc(C(NC(=O)C2(c3ncc(N4CCS(=O)(=O)CC4)cc3C)CC2)c2ccc(C)o2)c(C)c1 (stereo not drawn) (as salt: HCl) [Cpd. 72, N-[(2,4-dimethylphenyl)(5-methylfuran-2-yl)methyl]-1-[5-(1,1-dioxo-1-thiomorpholin-4-yl)-3-methylpyridin-2-yl]cyclopropane-1-carboxamide] | 87 °C | – | –
Cc1ccc(C(NC(=O)C2(c3ccc(N4CCS(=O)(=O)CC4)cn3)CC2)c2ccc(C)o2)c(C)c1 (stereo not drawn) (as salt: HCl) [Cpd. 73, N-[(2,4-dimethylphenyl)(5-methylfuran-2-yl)methyl]-1-[5-(1,1-dioxo-1-thiomorpholin-4-yl)pyridin-2-yl]cyclopropane-1-carboxamide] | 71 °C | – | –
Cc1ccc(N2CCS(=O)(=O)CC2)cc1CC(=O)NC(c1ccccc1)c1ccccc1N1CCCCC1 (stereo not drawn) [Cpd. 2, 2-[5-(1,1-dioxo-1-thiomorpholin-4-yl)-2-methylphenyl]-N-{phenyl[2-(piperidin-1-yl)phenyl]methyl}acetamide] | – | 1000 to 10000 nM | 1000 to 10000 nM
Cc1ccc(C(NC(=O)Cc2cc(N3CCS(=O)(=O)CC3)ccc2F)c2ccccc2)c(N2CCOCC2)c1 (stereo not drawn) [Cpd. 4, 2-[5-(1,1-dioxo-1-thiomorpholin-4-yl)-2-fluorophenyl]-N-{[4-methyl-2-(morpholin-4-yl)phenyl](phenyl)methyl}acetamide] | – | 100 to 1000 nM | 1000 to 10000 nM
Cc1ccc(C(NC(=O)Cc2cc(N3CCS(=O)(=O)CC3)ccc2C)c2ccccc2)c(N2CCOCC2)c1 (stereo not drawn) [Cpd. 7, 2-[5-(1,1-dioxo-1-thiomorpholin-4-yl)-2-methylphenyl]-N-{[4-methyl-2-(morpholin-4-yl)phenyl](phenyl)methyl}acetamide] | – | 100 to 1000 nM | 1000 to 10000 nM
Cc1ccc(C(NC(=O)Cc2cc(N3CCOCC3)ccc2F)c2ccccc2)c(N2CCCCC2)c1 (stereo not drawn) [Cpd. 8, 2-[2-fluoro-5-(morpholin-4-yl)phenyl]-N-{[4-methyl-2-(piperidin-1-yl)phenyl](phenyl)methyl}acetamide] | – | 100 to 1000 nM | 1000 to 10000 nM
COc1ccc(C(NC(=O)Cc2ccc(N3CCS(=O)(=O)CC3)c(C)c2)c2ccc(C)o2)c(N2CCC(C(F)(F)F)CC2)c1 (stereo not drawn) [Cpd. 14, 2-[4-(1,1-dioxo-1-thiomorpholin-4-yl)-3-methylphenyl]-N-({4-methoxy-2-[4-(trifluoromethyl)piperidin-1-yl]phenyl}(5-methylfuran-2-yl)methyl)acetamide] | – | 100 to 1000 nM | 100 to 1000 nM
Cc1ccc(N2CCCCC2)c(C(NC(=O)Cc2cnc(N3CCS(=O)(=O)CC3)nc2)c2ccc(C)o2)c1 (stereo not drawn) [Cpd. 17, 2-[2-(1,1-dioxo-1-thiomorpholin-4-yl)pyrimidin-5-yl]-N-{[5-methyl-2-(piperidin-1-yl)phenyl](5-methylfuran-2-yl)methyl}acetamide] | – | 100 to 1000 nM | 1000 to 10000 nM
Cc1ccc(C(NC(=O)Cc2ccc(N3CCS(=O)(=O)CC3)cc2)c2ccc(C)o2)c(C(F)(F)F)c1 (stereo not drawn) [Cpd. 24, 2-[4-(1,1-dioxo-1-thiomorpholin-4-yl)phenyl]-N-{[4-methyl-2-(trifluoromethyl)phenyl](5-methylfuran-2-yl)methyl}acetamide] | – | 100 to 1000 nM | 1000 to 10000 nM
Cc1ccc(C(NC(=O)Cc2cnc(N3CCOCC3)nc2)c2ccc(C)o2)c(N2CCCCC2)c1 (stereo not drawn) [Cpd. 26, N-{[4-methyl-2-(piperidin-1-yl)phenyl](5-methylfuran-2-yl)methyl}-2-[2-(morpholin-4-yl)pyrimidin-5-yl]acetamide] | – | < 1000 nM | 100 to 1000 nM
COc1cc(CC(=O)NC(c2ccc(C)o2)c2ccc(C)cc2N2CCCCC2)ccc1N1CCS(=O)(=O)CC1 (stereo not drawn) [Cpd. 29, 2-[4-(1,1-dioxo-1-thiomorpholin-4-yl)-3-methoxyphenyl]-N-{[4-methyl-2-(piperidin-1-yl)phenyl](5-methylfuran-2-yl)methyl}acetamide] | – | < 1000 nM | 100 to 1000 nM
Cc1ccc(C(NC(=O)Cc2cnc(N3CCS(=O)(=O)CC3)nc2)c2ccc(C)o2)c(Cl)c1 (stereo not drawn) [Cpd. 51, N-[(2-chloro-4-methylphenyl)(5-methylfuran-2-yl)methyl]-2-[2-(1,1-dioxo-1-thiomorpholin-4-yl)pyrimidin-5-yl]acetamide] | – | 1000 to 10000 nM | –
